From US11260057B2, “Combination comprising palbociclib and 6-(2,4-dichlorophenyl)-5-[4-[(3S)-1-(3-fluoropropyl)pyrrolidin-3-yl]oxyphenyl]-8,9-dihydro-7H-benzo[7] annulene-2-carboxylic acid and its use for the treatment of cancer” (SANOFI, priority 2017, dated 2022)

Tests used:
[1] = system: MCF7-Y537S human breast cancer cell line xenograft; assay: Anti-tumor efficacy against subcutaneous MCF7-Y537S human breast cancer cell line xenograft in female nude mice; assay type: in vivo; design: key to Biological Interpretation: Active: ΔT/ΔC≤40% is considered as therapeutically active; Very active: ΔT/ΔC<0% is considered as tumor regression (very active); Inactive: ΔT/ΔC>40% is considered as therapeutically inactive; conditions: for Tumor volume changes from baseline: Median: compound (1) 5 mg/kg BID, palbociclib 100 mg/kg QD, PO; for Biological Interpretation: based on ΔT/ΔC at day 51; for Biological Interpretation / ΔT/ΔC in % at day 51 / Regressions Complete / Regressions Partial: compound (1) 5 mg/kg PO BID, palbociclib 100 mg/kg PO QD; for ΔT/ΔC in % at day 51: days 22 to 51; for Regressions Complete: mice with complete regression/evaluable mice; for Regressions Complete / Regressions Partial: 30 days; for Regressions Partial: mice with partial regression/evaluable mice
Description: In the present study, the anti-tumor efficacy of 6-(2,4-dichlorophenyl)-5-[4-[(3S)-1-(3-fluoropropyl)pyrrolidin-3-yl]oxyphenyl]-8,9-dihydro-7H-benzo[7]annulene-2-carboxylic acid (“compound (1)”), combined with the cyclin-dependent kinase 4 (CDK4) inhibitor palbociclib, was investigated after 30 days treatment against a subcutaneous MCF7-Y537S human breast cancer cell line xenograft in female nude mice.
The treated groups included compound (1) at 5 mg/kg alone, palbociclib at 100 mg/kg alone, and the combination of compound (1) and palbociclib at the same dose and regime.
Compound (1) was orally dosed twice a day (BID) and palbociclib was orally dosed once a day (QD) for 30 days. Anti-tumor efficacy was evaluated by tumor volume measurement.
Female athymic nude mice were obtained from Harlan (Indianapolis, Ind., USA). Animals were allowed to acclimate for at least four days before the study enrollment. Mice were 12 to 13 weeks old and weighed between 20.2 and 27.3 grams at the beginning of the treatments. These animals were housed under conditions outlined in the NIH Guide for Care and Use of Laboratory Animals in compliance with the USDA Laboratory Animal Welfare Act.
Parental MCF7 cells were obtained from the American Type Culture Collection (ATCC® HTB-22™). MCF7-Y537S (ESR1) cell line was MCF7 cells expressing the ER.Y537S variant that was generated by Sanofi Biology Discovery Group. Y537S mutation was introduced in ESR1 construct (GenBank NM_000125.3) by site directed mutagenesis (Toy W. et al., Cancer Discovery, 2017, 7, 277-287). The construct was transfected in MCF7 cells which were selected for their growth in absence of estradiol. MCF-Y537S is an ESR1 mutation that confers estrogen-independent activity to ERα (Estrogen Receptor alpha) and contributes to endocrine resistant disease (Robinson D. R. et al., Nat Genet., 2013, 45 (12), 1446-1451). The cells were grown in Eagle's Minimum Essential Medium (EMEM) supplemented with 10% fetal bovine serum (FBS), human Insulin, in 5% CO2 at 37° C. The cells were harvested in 0.25% Trypsin EDTA and washed by Dulbecco's Phosphate Buffered Saline (DPBS) and re-suspended in DPBS with 50% matrigel (Becton Dickinson catalog No. 356234, lot No. 32277). The cells (20×10^6 cells/per mouse) were subcutaneously (SC) implanted into the right flank of female nude mice.
When the MCF7-Y537S tumors were established, the tumors were reserved as tumor stocks for fragment implantation. The tumors were serially propagated through fragment tissue transplantation subcutaneously. The fragment tumor tissues were subcutaneously implanted into the right flank of female nude mice. 50 mice were assigned in this experiment.
Compound (1) and palbociclib (commercially available, marketed under the tradename Ibrance®) were formulated as follows: […]
Compound (1) was prepared in Vehicle A, then Solutol HS15 (purchased from Sigma) was added to the final concentration 5%, and the solution was left under stirring for an hour for complete dissolution. After that, vehicle B was added. The final pH was 5.5.
Palbociclib was prepared in Vehicle A, then Solutol HS15 was added to the final concentration 5%, and the solution was left under stirring for an hour for complete dissolution. After that, vehicle B was added. The final pH was 5.5.
The animals required for experiment (plus extra) were pooled and implanted with MCF7-Y537S tumor fragment tissues on day 0. On day 21 post implantation, the mice were pooled and randomly distributed to the treatment and control groups (10 mice per group), where median tumor volumes for each group ranged from 202.5 to 211.5 mm^3. Treatments of compound (1) and palbociclib were initiated on day 22. Compound (1) was orally administered at 5 mg/kg BID (at least 5 hours apart) and palbociclib was orally administered at 100 mg/kg QD, for 30 days. Animal body weight was assessed daily.
The dosages are expressed in mg/kg and based on daily body weight per animal. Vehicle treated animals were used as controls. […]

[2] = Tolerability (body weight change, deaths) in the MCF7-Y537S xenograft study in nude mice; assay type: in vivo; conditions: compound (1) 5 mg/kg PO BID, palbociclib 100 mg/kg PO QD; for Average body weight change in % per group at nadir: days 22 to 51 (30 days); for day of nadir (of average body weight change): day post implantation, days 22 to 51; for Unscheduled death (Day of death): dead/total mice, footnote: non-drug related death or terminations, 30 days
Description: The animals required for experiment (plus extra) were pooled and implanted with MCF7-Y537S tumor fragment tissues on day 0. […] Animal body weight was assessed daily.
The dosages are expressed in mg/kg and based on daily body weight per animal. Vehicle treated animals were used as controls. Mice were checked daily and adverse clinical reactions noted. Individual mice were weighed daily until the end of the experiment. Mice would be euthanized when morbid or weight loss ≥20% was observed. Tumors were measured with a caliper twice weekly until final sacrifice. When a tumor size reached approximately 2000 mm^3 or when there are animal health issues (40% area of a tumor ulcerated), animals would be euthanized and date of death recorded. Solid tumor volumes were estimated from two dimensional tumor measurements and calculated according to the following equation: […]
Animal body weight included the tumor weight.

SMILES	Tumor volume changes from baseline: Median ([1]; Day 27) [mm^3]	Tumor volume changes from baseline: Median ([1]; Day 30) [mm^3]	Tumor volume changes from baseline: Median ([1]; Day 34) [mm^3]	Tumor volume changes from baseline: Median ([1]; Day 37) [mm^3]	Tumor volume changes from baseline: Median ([1]; Day 41) [mm^3]	Tumor volume changes from baseline: Median ([1]; Day 44) [mm^3]	Tumor volume changes from baseline: Median ([1]; Day 49) [mm^3]	Tumor volume changes from baseline: Median ([1]; Day 51) [mm^3]	Biological Interpretation [1]	ΔT/ΔC in % at day 51 [1] [%]	Regressions Complete [1]	Regressions Partial [1]	Average body weight change in % per group at nadir [2] [%]	day of nadir (of average body weight change) [2]	Unscheduled death (Day of death) [2]
O=C(O)c1ccc2c(c1)CCCC(c1ccc(Cl)cc1Cl)=C2c1ccc(O[C@H]2CCN(CCCF)C2)cc1 [Compound (1), 6-(2,4-dichlorophenyl)-5-[4-[(3S)-1-(3-fluoropropyl)pyrrolidin-3-yl]oxyphenyl]-8,9-dihydro-7H-benzo[7]annulene-2-carboxylic acid]	114.0	171.5	270.5	336.0	440.0	498.5	727.5	782.0	Inactive	59	0/8	0/8	−1.7	22	2/10
CC(=O)c1c(C)c2cnc(Nc3ccc(N4CCNCC4)cn3)nc2n(C2CCCC2)c1=O [Palbociclib, 6-acetyl-8-cyclopentyl-5-methyl-2-[5-(1-piperazinyl)pyridine-2-ylamino]pyrido[2,3-d]pyrimidin-7(8H)-one]	68.5	98.0	121.5	132.0	193.5	249.5	298.5	363.5	Active	27	0/10	0/10	−2.0	22	0/10
